{"source": "patent US10202361B2", "about": "“Pyridazinones as herbicides” (E I DU PONT DE NEMOURS AND COMPANY, priority 2014, dated 2019)", "assay_in_all_cases": "Test D pre-/postemergence controlled growth environment herbicide test", "type_in_all_cases": "in vivo", "conditions_in_all_cases": "scale 0 to 100", "key": {"[1]": {"tested_on": "blackgrass (Alopecurus myosuroides)", "description": "(§1) Seeds of plant species selected from bluegrass (annual bluegrass, Poa annua), blackgrass (Alopecurus myosuroides), canarygrass (Phalaris minor), chickweed (common chickweed, Stellaria media), galium (catchweed bedstraw, Galium aparine), downy bromegrass (Bromus tectorum), field poppy (Papaver rhoeas), field violet (Viola arvensis), foxtail, green (green foxtail, Setaria viridis), deadnettle (henbit deadnettle, Lamium amplexicaule), ryegrass, Italian (Italian ryegrass, Lolium multiflorum), kochia (Kochia scoparia), lambsquarters (Chenopodium album), oilseed rape (Brassica napus), pigweed (Amaranthus retroflexus), chamomile (scentless chamomile, Matricaria inodora), Russian thistle (Salsola kali), speedwell (bird's-eye speedwell, Veronica persica), barley, spring (spring barley, Hordeum vulgare), wheat, spring (spring wheat, Triticum aestivum), buckwheat, wild (wild buckwheat, Polygonum convolvulus), mustard, wild (wild mustard, Sinapis arvensis), oat, wild (wild oat, Avena fatua), radish, wild (wild radish, Raphanus raphanistrum), windgrass (Apera spica-venti), barley, winter (winter barley, Hordeum vulgare), and wheat, winter (winter wheat, Triticum aestivum) were planted into a silt loam soil and treated preemergence with test chemicals formulated in a non-phytotoxic solvent mixture which included a surfactant.\n(§2) At the same time, these species were planted in pots containing Redi-Earth® planting medium (Scotts Company, 14111 Scottslawn Road, Marysville, Ohio 43041) comprising spaghnum peat moss, vermiculite, wetting agent and starter nutrients and treated with postemergence applications of the test chemicals formulated in the same manner. Plants ranged in height from 2 to 18 cm (1- to 4-leaf stage). Treated plants and controls were maintained in a controlled growth environment for 14 to 21 d after which time all species were compared to controls and visually evaluated. Plant response ratings, summarized in Table D, are based on a scale of 0 to 100 where 0 is no effect and 100 is complete control. A dash (-) response means no test result."}, "[2]": {"tested_on": "buckwheat, wild (wild buckwheat, Polygonum convolvulus)", "description": "as §1, §2"}, "[3]": {"tested_on": "chamomile (scentless chamomile, Matricaria inodora)", "description": "as §1, §2"}, "[4]": {"tested_on": "chickweed (common chickweed, Stellaria media)", "description": "as §1, §2"}, "[5]": {"tested_on": "field poppy (Papaver rhoeas)", "description": "as §1, §2"}, "[6]": {"tested_on": "galium (catchweed bedstraw, Galium aparine)", "description": "as §1, §2"}, "[7]": {"tested_on": "pigweed (Amaranthus retroflexus)", "description": "as §1, §2"}, "[8]": {"tested_on": "radish, wild (wild radish, Raphanus raphanistrum)", "description": "as §1, §2"}, "[9]": {"tested_on": "wheat, winter (winter wheat, Triticum aestivum)", "description": "as §1, §2"}, "[10]": {"tested_on": "windgrass (Apera spica-venti)", "description": "as §1, §2"}}}
{"smiles": "Cc1cc(=O)n(-c2ccc(F)cc2)nc1Cc1ccnc(C(F)(F)F)c1", "note": "[Compound 1, 2-(4-fluorophenyl)-5-methyl-6-[[2-(trifluoromethyl)-4-pyridinyl]methyl]-3(2H)-pyridazinone]", "values": [{"measurement": "Plant response rating", "setting": "[1]; Postemergence, 31 g ai/ha", "value": 0}, {"measurement": "Plant response rating", "setting": "[1]; Postemergence, 62 g ai/ha", "value": 10}, {"measurement": "Plant response rating", "setting": "[1]; Postemergence, 125 g ai/ha", "value": 10}, {"measurement": "Plant response rating", "setting": "[1]; Postemergence, 250 g ai/ha", "value": 20}, {"measurement": "Plant response rating", "setting": "[1]; Postemergence, 500 g ai/ha", "value": 20}, {"measurement": "Plant response rating", "setting": "[1]; Preemergence, 31 g ai/ha", "value": 0}, {"measurement": "Plant response rating", "setting": "[1]; Preemergence, 62 g ai/ha", "value": 0}, {"measurement": "Plant response rating", "setting": "[1]; Preemergence, 125 g ai/ha", "value": 20}, {"measurement": "Plant response rating", "setting": "[1]; Preemergence, 250 g ai/ha", "value": 40}, {"measurement": "Plant response rating", "setting": "[1]; Preemergence, 500 g ai/ha", "value": 75}, {"measurement": "Plant response rating", "setting": "[2]; Postemergence, 31 g ai/ha", "value": 20}, {"measurement": "Plant response rating", "setting": "[2]; Postemergence, 62 g ai/ha", "value": 20}, {"measurement": "Plant response rating", "setting": "[2]; Postemergence, 125 g ai/ha", "value": 30}, {"measurement": "Plant response rating", "setting": "[2]; Postemergence, 250 g ai/ha", "value": 40}, {"measurement": "Plant response rating", "setting": "[2]; Postemergence, 500 g ai/ha", "value": 60}, {"measurement": "Plant response rating", "setting": "[2]; Preemergence, 31 g ai/ha", "value": 0}, {"measurement": "Plant response rating", "setting": "[2]; Preemergence, 62 g ai/ha", "value": 40}, {"measurement": "Plant response rating", "setting": "[2]; Preemergence, 125 g ai/ha", "value": 70}, {"measurement": "Plant response rating", "setting": "[2]; Preemergence, 250 g ai/ha", "value": 70}, {"measurement": "Plant response rating", "setting": "[2]; Preemergence, 500 g ai/ha", "value": 70}, {"measurement": "Plant response rating", "setting": "[3]; Postemergence, 31 g ai/ha", "value": 30}, {"measurement": "Plant response rating", "setting": "[3]; Postemergence, 62 g ai/ha", "value": 30}, {"measurement": "Plant response rating", "setting": "[3]; Postemergence, 125 g ai/ha", "value": 30}, {"measurement": "Plant response rating", "setting": "[3]; Postemergence, 250 g ai/ha", "value": 60}, {"measurement": "Plant response rating", "setting": "[3]; Postemergence, 500 g ai/ha", "value": 50}, {"measurement": "Plant response rating", "setting": "[3]; Preemergence, 125 g ai/ha", "value": 70}, {"measurement": "Plant response rating", "setting": "[3]; Preemergence, 250 g ai/ha", "value": 90}, {"measurement": "Plant response rating", "setting": "[3]; Preemergence, 500 g ai/ha", "value": 100}, {"measurement": "Plant response rating", "setting": "[4]; Postemergence, 31 g ai/ha", "value": 30}, {"measurement": "Plant response rating", "setting": "[4]; Postemergence, 62 g ai/ha", "value": 30}, {"measurement": "Plant response rating", "setting": "[4]; Postemergence, 125 g ai/ha", "value": 50}, {"measurement": "Plant response rating", "setting": "[4]; Postemergence, 250 g ai/ha", "value": 50}, {"measurement": "Plant response rating", "setting": "[4]; Postemergence, 500 g ai/ha", "value": 60}, {"measurement": "Plant response rating", "setting": "[4]; Preemergence, 31 g ai/ha", "value": 100}, {"measurement": "Plant response rating", "setting": "[4]; Preemergence, 62 g ai/ha", "value": 100}, {"measurement": "Plant response rating", "setting": "[4]; Preemergence, 125 g ai/ha", "value": 100}, {"measurement": "Plant response rating", "setting": "[4]; Preemergence, 250 g ai/ha", "value": 100}, {"measurement": "Plant response rating", "setting": "[4]; Preemergence, 500 g ai/ha", "value": 100}, {"measurement": "Plant response rating", "setting": "[5]; Postemergence, 31 g ai/ha", "value": 30}, {"measurement": "Plant response rating", "setting": "[5]; Postemergence, 62 g ai/ha", "value": 60}, {"measurement": "Plant response rating", "setting": "[5]; Postemergence, 125 g ai/ha", "value": 60}, {"measurement": "Plant response rating", "setting": "[5]; Postemergence, 250 g ai/ha", "value": 80}, {"measurement": "Plant response rating", "setting": "[5]; Postemergence, 500 g ai/ha", "value": 85}, {"measurement": "Plant response rating", "setting": "[5]; Preemergence, 31 g ai/ha", "value": 50}, {"measurement": "Plant response rating", "setting": "[5]; Preemergence, 62 g ai/ha", "value": 95}, {"measurement": "Plant response rating", "setting": "[5]; Preemergence, 125 g ai/ha", "value": 95}, {"measurement": "Plant response rating", "setting": "[5]; Preemergence, 250 g ai/ha", "value": 100}, {"measurement": "Plant response rating", "setting": "[5]; Preemergence, 500 g ai/ha", "value": 100}, {"measurement": "Plant response rating", "setting": "[6]; Postemergence, 31 g ai/ha", "value": 30}, {"measurement": "Plant response rating", "setting": "[6]; Postemergence, 62 g ai/ha", "value": 30}, {"measurement": "Plant response rating", "setting": "[6]; Postemergence, 125 g ai/ha", "value": 45}, {"measurement": "Plant response rating", "setting": "[6]; Postemergence, 250 g ai/ha", "value": 70}, {"measurement": "Plant response rating", "setting": "[6]; Postemergence, 500 g ai/ha", "value": 90}, {"measurement": "Plant response rating", "setting": "[6]; Preemergence, 31 g ai/ha", "value": 0}, {"measurement": "Plant response rating", "setting": "[6]; Preemergence, 62 g ai/ha", "value": 10}, {"measurement": "Plant response rating", "setting": "[6]; Preemergence, 250 g ai/ha", "value": 70}, {"measurement": "Plant response rating", "setting": "[6]; Preemergence, 500 g ai/ha", "value": 100}, {"measurement": "Plant response rating", "setting": "[7]; Postemergence, 31 g ai/ha", "value": 20}, {"measurement": "Plant response rating", "setting": "[7]; Postemergence, 62 g ai/ha", "value": 30}, {"measurement": "Plant response rating", "setting": "[7]; Postemergence, 125 g ai/ha", "value": 30}, {"measurement": "Plant response rating", "setting": "[7]; Postemergence, 250 g ai/ha", "value": 40}, {"measurement": "Plant response rating", "setting": "[7]; Postemergence, 500 g ai/ha", "value": 50}, {"measurement": "Plant response rating", "setting": "[7]; Preemergence, 62 g ai/ha", "value": 20}, {"measurement": "Plant response rating", "setting": "[7]; Preemergence, 125 g ai/ha", "value": 100}, {"measurement": "Plant response rating", "setting": "[7]; Preemergence, 250 g ai/ha", "value": 100}, {"measurement": "Plant response rating", "setting": "[7]; Preemergence, 500 g ai/ha", "value": 100}, {"measurement": "Plant response rating", "setting": "[8]; Postemergence, 31 g ai/ha", "value": 10}, {"measurement": "Plant response rating", "setting": "[8]; Postemergence, 62 g ai/ha", "value": 25}, {"measurement": "Plant response rating", "setting": "[8]; Postemergence, 125 g ai/ha", "value": 35}, {"measurement": "Plant response rating", "setting": "[8]; Postemergence, 250 g ai/ha", "value": 50}, {"measurement": "Plant response rating", "setting": "[8]; Postemergence, 500 g ai/ha", "value": 90}, {"measurement": "Plant response rating", "setting": "[8]; Preemergence, 62 g ai/ha", "value": 75}, {"measurement": "Plant response rating", "setting": "[8]; Preemergence, 125 g ai/ha", "value": 60}, {"measurement": "Plant response rating", "setting": "[8]; Preemergence, 250 g ai/ha", "value": 100}, {"measurement": "Plant response rating", "setting": "[8]; Preemergence, 500 g ai/ha", "value": 100}, {"measurement": "Plant response rating", "setting": "[9]; Postemergence, 31 g ai/ha", "value": 0}, {"measurement": "Plant response rating", "setting": "[9]; Postemergence, 62 g ai/ha", "value": 0}, {"measurement": "Plant response rating", "setting": "[9]; Postemergence, 125 g ai/ha", "value": 5}, {"measurement": "Plant response rating", "setting": "[9]; Postemergence, 250 g ai/ha", "value": 5}, {"measurement": "Plant response rating", "setting": "[9]; Postemergence, 500 g ai/ha", "value": 10}, {"measurement": "Plant response rating", "setting": "[9]; Preemergence, 31 g ai/ha", "value": 0}, {"measurement": "Plant response rating", "setting": "[9]; Preemergence, 62 g ai/ha", "value": 0}, {"measurement": "Plant response rating", "setting": "[9]; Preemergence, 125 g ai/ha", "value": 10}, {"measurement": "Plant response rating", "setting": "[9]; Preemergence, 250 g ai/ha", "value": 50}, {"measurement": "Plant response rating", "setting": "[9]; Preemergence, 500 g ai/ha", "value": 70}, {"measurement": "Plant response rating", "setting": "[10]; Postemergence, 31 g ai/ha", "value": 20}, {"measurement": "Plant response rating", "setting": "[10]; Postemergence, 62 g ai/ha", "value": 20}, {"measurement": "Plant response rating", "setting": "[10]; Postemergence, 125 g ai/ha", "value": 20}, {"measurement": "Plant response rating", "setting": "[10]; Postemergence, 250 g ai/ha", "value": 20}, {"measurement": "Plant response rating", "setting": "[10]; Postemergence, 500 g ai/ha", "value": 20}, {"measurement": "Plant response rating", "setting": "[10]; Preemergence, 31 g ai/ha", "value": 0}, {"measurement": "Plant response rating", "setting": "[10]; Preemergence, 62 g ai/ha", "value": 20}, {"measurement": "Plant response rating", "setting": "[10]; Preemergence, 125 g ai/ha", "value": 100}, {"measurement": "Plant response rating", "setting": "[10]; Preemergence, 250 g ai/ha", "value": 100}, {"measurement": "Plant response rating", "setting": "[10]; Preemergence, 500 g ai/ha", "value": 100}]}
